Measured values from patent US20050064050A1 (priority 1999, published 2005).

Experiments:
[1] = biological target: botulinum neurotoxin (BoNT/A) (Clostridium botulinum, UniProt P0DPI0); set-up: key to BoNT neutralization effects of tea-leaf extract ingredients: Effect: +: Effective in neutralization; −: Ineffective in neutralization
mouse = details: in vivo, po

Chain of botulinum neurotoxin (BoNT/A) (P0DPI0 whole entry, looked up): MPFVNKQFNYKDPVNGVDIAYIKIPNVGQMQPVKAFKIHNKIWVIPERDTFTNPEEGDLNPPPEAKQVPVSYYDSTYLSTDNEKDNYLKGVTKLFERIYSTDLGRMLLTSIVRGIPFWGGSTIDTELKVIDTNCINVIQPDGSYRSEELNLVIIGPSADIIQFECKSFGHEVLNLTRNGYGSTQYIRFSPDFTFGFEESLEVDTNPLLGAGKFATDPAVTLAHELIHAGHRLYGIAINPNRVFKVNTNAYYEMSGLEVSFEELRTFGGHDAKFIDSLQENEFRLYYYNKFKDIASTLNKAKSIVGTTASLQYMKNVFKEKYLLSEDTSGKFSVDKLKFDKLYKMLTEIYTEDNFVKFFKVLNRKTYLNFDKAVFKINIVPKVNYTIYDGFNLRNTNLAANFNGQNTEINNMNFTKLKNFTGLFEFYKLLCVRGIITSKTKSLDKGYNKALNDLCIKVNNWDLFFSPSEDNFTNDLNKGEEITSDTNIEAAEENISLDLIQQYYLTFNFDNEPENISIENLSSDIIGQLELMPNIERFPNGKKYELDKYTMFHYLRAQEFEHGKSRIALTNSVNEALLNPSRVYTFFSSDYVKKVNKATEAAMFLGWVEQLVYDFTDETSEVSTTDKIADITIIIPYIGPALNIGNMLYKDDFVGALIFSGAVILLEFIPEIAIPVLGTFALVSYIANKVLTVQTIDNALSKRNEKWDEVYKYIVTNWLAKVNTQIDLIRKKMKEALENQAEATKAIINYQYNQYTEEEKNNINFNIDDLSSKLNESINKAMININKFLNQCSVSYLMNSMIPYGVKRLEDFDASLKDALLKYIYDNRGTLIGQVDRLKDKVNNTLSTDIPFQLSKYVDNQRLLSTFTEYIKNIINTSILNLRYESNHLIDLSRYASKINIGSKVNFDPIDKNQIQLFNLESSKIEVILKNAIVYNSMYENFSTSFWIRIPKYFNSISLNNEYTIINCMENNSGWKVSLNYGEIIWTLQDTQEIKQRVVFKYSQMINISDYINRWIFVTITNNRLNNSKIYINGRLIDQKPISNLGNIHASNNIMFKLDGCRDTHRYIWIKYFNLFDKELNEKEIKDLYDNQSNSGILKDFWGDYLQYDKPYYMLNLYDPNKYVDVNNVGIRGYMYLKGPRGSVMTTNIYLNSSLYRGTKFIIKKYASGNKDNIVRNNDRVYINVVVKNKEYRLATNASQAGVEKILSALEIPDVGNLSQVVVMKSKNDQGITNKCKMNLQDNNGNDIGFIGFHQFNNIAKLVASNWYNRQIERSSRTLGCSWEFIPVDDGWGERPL

Compound	BoNT neutralization effects of tea-leaf extract ingredients: Effect [1]	BoNT neutralizing effect (in words) [1]	toxicity (in words) (mouse)
O=C(OC[C@H]1O[C@@H](OC(=O)c2cc(O)c(O)c(OC(=O)c3cc(O)c(O)c(O)c3)c2)[C@H](OC(=O)c2cc(O)c(O)c(OC(=O)c3cc(O)c(O)c(O)c3)c2)[C@@H](OC(=O)c2cc(O)c(O)c(OC(=O)c3cc(O)c(O)c(O)c3)c2)[C@@H]1OC(=O)c1cc(O)c(O)c(OC(=O)c2cc(O)c(O)c(O)c2)c1)c1cc(O)c(O)c(OC(=O)c2cc(O)c(O)c(O)c2)c1 [Tannic Acid, tannic acid]	−	showed no neutralizing effect	
O=c1c(O)cc([C@H]2Oc3cc(O)cc(O)c3C[C@H]2O)cc2c([C@H]3Oc4cc(O)cc(O)c4C[C@H]3O)cc(O)c(O)c12 [Theaflavin, theaflavin]	−	showed no neutralizing effect	
catechin	−	showed no neutralizing effect	
thearubigin			no toxicity
